Experimental data from patent EP1914235A1, “CHIRAL TETRA-HYDRO BETA-CARBOLINE DERIVATIVES AND APPLICATIONS THEREOF AS ANTIPARASITIC COMPOUNDS” (Université de Lille 2 Droit et Santé, priority 2006, dated 2008).
In brackets after ≈: the same amount, converted by molar mass. Where two headings read alike, the source gives them in different places.

Key:
[1] = test system: P. falciparum 3D7 clone of NF54; test: [3H]hypoxanthine drug sensitivity assay, 3D7 clone; type: cell-based; details: Plasmodium falciparum, read-out: IC50 3D7(µg/ml)
Method: (§1) The cultures are naturally asynchronous (65-75% ring stage) and are maintained in continuous log phase growth in RPMI-1640 medium (as developed by Moore et. al. at Roswell Park Memorial Institute, sold by Sigma Aldrich) supplemented with 5% washed human A+ erythrocytes, 25 mM Hepes, […] NaHCO3, and AlbuMAXII (lipid-rich bovine serum albumin) sold GIBCO, Grand Island, NY (CM). All cultures and assays were conducted at 37°C under an atmosphere of 5% CO2 and 5% O2, with a balance of N2.
(§2) The compounds were further diluted to the appropriate concentration using complete medium RPMI-1640 supplemented with 15nM cold hypoxanthine and AlbuMAXII.
Assays were performed in sterile 96-well microtitre plates; each plate contained 100 µl of parasite culture (0.5% parasitemia, 2.5% hematocrit). Each compound was tested in triplicate and parasite growth compared to control and blank (uninfected erythrocytes) wells. After 24h of incubation at 37°C, […] of [^3H]hypoxanthine was added to each well. Cultures were incubated for a further 24 h before they were harvested onto glass-fiber filter mats. The radioactivity was counted using a Wallac Microbeta® 1450 scintillation counter. […] Percentage inhibition was calculated from comparison to blank and control wells, and IC50 values calculated using Microsoft XLFit ® line fitting software (IDBS, UK).
The preliminary screen used the 3D7 strain. The compounds were tested at 6 concentrations (30, 10, 3, 1, 0.3, and 0.1 µg/ml).
(§3) Both the 3D7 clone and the K1 line were used. The compounds were diluted three-fold over at 12 different concentrations with an appropriate starting concentration based on the preliminary screen. The IC50 was determined by a sigmoidal dose response analysis using Microsoft XLFit™ (IDBS, UK).

P. falciparum K1 strain = test: [3H]hypoxanthine drug sensitivity assay, K1 strain; type: cell-based; details: Plasmodium falciparum
Method: as §1, §2
Assays were performed in sterile 96-well microtitre plates; each plate contained 100 µl of parasite culture (0.5% parasitemia, 2.5% hematocrit). Each compound was tested in triplicate and parasite growth compared to control and blank (uninfected erythrocytes) wells. After 24h of incubation at 37°C, […] of [^3H]hypoxanthine was added to each well. Cultures were incubated for a further 24 h before they were harvested onto glass-fiber filter mats. The radioactivity was counted using a Wallac Microbeta® 1450 scintillation counter. The results were recorded as counts per minute (CPM) per well at each compound concentration, control and blank wells. Percentage inhibition was calculated from comparison to blank and control wells, and IC50 values calculated using Microsoft XLFit ® line fitting software (IDBS, UK).
as §3

[2] = test system: Plasmodium berghei ANKA strain; test: In vivo antiparasitic activity in infected mice (4-day dosing, parasitemia on day 5); details: mice infected with P. berghei ANKA; for Activity at the dose 50 mg/kg (%): 50 mg/kg every day for 4 days
Method: Female mice (TFW or BALB/c, specific pathogen free), 18-20 g, or
Infection: Blood was taken from donor mice and diluted in RPMI-1640 medium to a parasitemia of 1% (the equivalent of 1x10^7 infected erythrocytes/ml) whilst kept on ice. An inoculum of 0.2 ml was administered to each mouse by the intravenous route. At 2-4 hours post-inoculation dosing commences.
Evaluation endpoint: On day 5 blood smears of all animals (2 slides/mouse) were prepared, fixed with methanol and stained with 10% Giemsa's stain. Parasitemia was determined microscopically by counting 1000 red blood cells under oil immersion at 1000x magnification.
Each of the tested compounds of formula (I) according to the invention was prepared as a stock solution of 5 mg/ml in 10% DMSO/PBS. Insoluble compounds of formula (I) were milled with stainless steel balls for up to 24 hours to reduce particle size. Fresh dilutions were prepared each day. The route of administration of tested compounds is intra peritoneal (i.p.).
Compounds were formulated at 10 mg/kg or at 50 mg/kg in a standard suspension vehicle (0.5% carboxymethylcellulose, 0.5% benzyl alcohol, 0.4% Tween® 80 in 0.9% NaCl) for both oral and i.p. administration.
Dosing was over a 4 day period as above, and evaluation was also as above.

[3] = P. falciparum 3D7, sensitive to all anti-malarials, 48 h, [3H]hypoxanthine uptake

SMILES	IC50 [1, 3]	IC50 (P. falciparum K1 strain; K1, read-out: IC50 K1)	other results
CN(CCN1CC(=O)N2[C@@H](c3ccc4c(c3)OCO4)c3[nH]c4ccccc4c3C[C@@H]2C1=O)Cc1ccccc1 [Compound 16, (6S,12aR)-6-Benzo[1,3]dioxol-5-yl-2-[2-(benzyl-methyl-amino)-ethyl]-2,3,6,7,12,12a-hexahydro-pyrazino[1',2':1,6]pyrido [3,4-b]indole-1,4-dione]			IC50 [1]: 0.3 µg/mL (≈ 0.574 µM); IC50 (P. falciparum K1 strain; K1, read-out: IC50 K1 (µg/ml)): 0.6 µg/mL (≈ 1.15 µM)
O=C1[C@H]2Cc3c([nH]c4ccccc34)[C@@H](c3ccccc3)N2C(=O)CN1C1CCN(Cc2ccccc2)CC1 [Compound 90, (6R,12aR)-2-(1-Benzyl-piperidin-4-yl)-6-phenyl-2,3,6,7,12,12a-hexahydro-pyrazino[1',2':1,6]pyrido[3,4-b]indole-1,4-dione]	0.48 µg/mL (≈ 0.951 µM)	0.3 µg/mL (≈ 0.594 µM)	
Cn1ccnc1CN1CC[C@@H](N2CC(=O)N3[C@@H](c4ccc5c(c4)OCO5)c4[nH]c5ccccc5c4C[C@@H]3C2=O)C1 [Compound 29, (6S,12aR)-6-Benzo[1,3]dioxol-5-yl-2-[(R)-1-(1-methyl-1H-imidazol-2-ylmethyl)-pyrrolidin-3-yl]-2,3,6,7,12,12a-hexahydro-pyrazino[1',2':1,6]pyrido[3,4-b]indole-1,4-dione]	0.5 µg/mL (≈ 0.928 µM)	0.09 µg/mL (≈ 0.167 µM)	Activity at the dose 50 mg/kg (%) [2]: 19%
O=C1[C@H]2Cc3c([nH]c4ccccc34)[C@@H](c3ccc4c(c3)OCO4)N2C(=O)CN1[C@@H]1CCN(Cc2ccc3c(c2)OCO3)C1 [Compound 33, (6R,12aR)-6-Benzo[1,3]dioxol-5-yl-2-((R)-1-benzo[1,3]dioxol-5-ylmethyl-pyrrolidin-3-yl)-2,3,6,7,12,12a-hexahydro-pyrazino[1',2':1,6]pyrido[3,4-b]indole-1,4-dione]	0.17 µg/mL (≈ 0.294 µM)	0.16 µg/mL (≈ 0.277 µM)	
CN(CCCN1CC(=O)N2[C@@H](c3ccc4c(c3)OCO4)c3[nH]c4ccccc4c3C[C@@H]2C1=O)Cc1ccccc1 [Compound 18, (6S,12aR)-6-Benzo[1,3]dioxol-5-yl-2-[3-(benzyl-methyl-amino)-propyl]-2,3,6,7,12,12a-hexahydro-pyrazino[1',2':1,6]pyrido [3,4-b]indole-1,4-dione]			IC50 [1]: 1.34 µg/mL (≈ 2.5 µM); IC50 (P. falciparum K1 strain; K1, read-out: IC50 K1 (µg/ml)): 0.28 µg/mL (≈ 0.522 µM)
O=C1[C@H]2Cc3c([nH]c4ccccc34)[C@H](c3ccc4c(c3)OCO4)N2C(=O)CN1[C@@H]1CCN(Cc2ccccc2)C1 [Compound 14, (6S,12aR)-6-Benzo[1,3]dioxol-5-yl-2-((R)-1-benzyl-pyrrolidin-3-yl)-2,3,6,7,12,12a-hexahydro-pyrazino[1',2':1,6]pyrido [3,4-b]indole-1,4-dione]	0.29 µg/mL (≈ 0.542 µM)	1.03 µg/mL (≈ 1.93 µM)	
CN(CCCN1CC(=O)N2[C@H](c3ccc4c(c3)OCO4)c3[nH]c4ccccc4c3C[C@@H]2C1=O)Cc1ccccc1 [Compound 17, (6R,12aR)-6-Benzo[1,3]dioxol-5-yl-2-[3-(benzyl-methyl-amino)-propyl]-2,3,6,7,12,12a-hexahydro-pyrazino[1',2':1,6]pyrido [3,4-b]indole-1,4-dione]	0.98 µg/mL (≈ 1.83 µM)	0.19 µg/mL (≈ 0.354 µM)	
CN(C)c1ccc(CN2CC[C@@H](N3CC(=O)N4[C@H](c5ccc6c(c5)OCO6)c5[nH]c6ccccc6c5C[C@@H]4C3=O)C2)cc1 [Compound 26, (6R,12aR)-6-Benzo[1,3]dioxol-5-yl-2-[(R)-1-(4-dimethylamino-benzyl)-pyrrolidin-3-yl]-2,3,6,7,12,12a-hexahydro-pyrazino[1',2':1,6]pyrido[3,4-b]indole-1,4-dione]	0.006 µg/mL (≈ 0.0104 µM)	0.14 µg/mL (≈ 0.242 µM)	Activity at the dose 10 mg/kg (%) ([2]; 10 mg/kg every day for 4 days): 15%; Activity at the dose 50 mg/kg (%) [2]: 17%
COc1ccc(CN2CC[C@@H](N3CC(=O)N4[C@H](c5ccc6c(c5)OCO6)c5[nH]c6ccccc6c5C[C@@H]4C3=O)C2)cc1 [Compound 31, (6R,12aR)-6-Benzo[1,3]dioxol-5-yl-2-[(R)-1-(4-methoxy-benzyl)-pyrrolidin-3-yl]-2,3,6,7,12,12a-hexahydro-pyrazino[1',2':1,6]pyrido[3,4-b]indole-1,4-dione]	0.23 µg/mL (≈ 0.407 µM)	0.13 µg/mL (≈ 0.23 µM)	
CCN(CC)CCCC(C)Nc1ccnc2cc(Cl)ccc12 (stereo not drawn) [Chloroquine, reference compound]			IC50 (P. falciparum K1 strain; K1): 0.13 to 0.21 µg/mL (≈ 0.406 to 0.656 µM)
CC(C)(C)OC(=O)NCCN1CC[C@@H](N2CC(=O)N3[C@H](c4ccc5c(c4)OCO5)c4[nH]c5ccccc5c4C[C@@H]3C2=O)C1 [Compound 35, {2-[(R)-3-((6R,12aR)-6-Benzo[1,3]dioxol-5-yl-1,4-dioxo-3,4,6,7,12,12a-hexahydro-1H-pyrazino[1',2':1,6]pyrido[3,4-b]indol-2-yl)-pyrrolidin-1-yl]-ethyl)-carbamic acid tert-butyl ester]	0.07 µg/mL (≈ 0.119 µM)	0.015 µg/mL (≈ 0.0255 µM)	
CN(CCN1CC(=O)N2[C@H](c3ccc4c(c3)OCO4)c3[nH]c4ccccc4c3C[C@@H]2C1=O)Cc1ccccc1 [Compound 15, (6R,12aR)-6-Benzo[1,3]dioxol-5-yl-2-[2-(benzyl-methyl-amino)-ethyl]-2,3,6,7,12,12a-hexahydro-pyrazino[1',2':1,6]pyrido [3,4-b]indole-1,4-dione]	0.6 µg/mL (≈ 1.15 µM)	0.4 µg/mL (≈ 0.765 µM)	

Further lines, with some results ahead:

IC50 [1, 3]	IC50 (P. falciparum K1 strain; K1, read-out: IC50 K1)	SMILES	other results
0.13 µg/mL (≈ 0.237 µM)	0.15 µg/mL (≈ 0.273 µM)	O=C1[C@H]2Cc3c([nH]c4ccccc34)[C@@H](c3ccc4nsnc4c3)N2C(=O)CN1[C@@H]1CCN(Cc2ccccc2)C1 [Compound 70c, (6R,12aR)-6-Benzo[1,2,5]thiadiazol-5-yl-2-((R)-1-benzyl-pyrrolidin-3-yl)-2,3,6,7,12,12a-hexahydro-pyrazino[1',2':1,6] pyrido[3,4-b]indole-1,4-dione]	
0.7 µg/mL (≈ 1.28 µM)	0.5 µg/mL (≈ 0.911 µM)	O=C1[C@H]2Cc3c([nH]c4ccccc34)[C@H](c3ccc4nsnc4c3)N2C(=O)CN1[C@@H]1CCN(Cc2ccccc2)C1 [Compound 70t, (6S,12aR)-6-Benzo[1,2,5]thiadiazol-5-yl-2-((R)-1-benzyl-pyrrolidin-3-yl)-2,3,6,7,12,12a-hexahydro-pyrazino[1',2':1,6] pyrido[3,4-b]indole-1,4-dione]	
0.09 µg/mL (≈ 0.171 µM)	1.03 µg/mL (≈ 1.96 µM)	O=C1[C@H]2Cc3c([nH]c4ccccc34)[C@H](c3ccc(Cl)nc3)N2C(=O)CN1[C@@H]1CCN(Cc2ccccc2)C1 [Compound 84t, (6S,12aR)-2-((R)-1-Benzyl-pyrrolidin-3-yl)-6-(6-chloro-pyridin-3-yl)-2,3,6,7,12,12a-hexahydro-pyrazino[1',2':1,6] pyrido[3,4-b]indole-1,4-dione]	
4.13 µg/mL (≈ 7.9 µM)	4.07 µg/mL (≈ 7.79 µM)	Cn1ccnc1CN1CCC(N2CC(=O)N3[C@H](Cc4c([nH]c5ccccc45)[C@@H]3Cc3ccccc3)C2=O)CC1 [Compound 91t, (6S,12aR)-6-Benzyl-2-[1-(1-methyl-1H-imidazol-2-ylmethyl)-piperidin-4-yl]-2,3,6,7,12,12a-hexahydro-pyrazino-[1',2':1,6]pyrido[3,4-b]indole-1,4-dione]	
4.17 µg/mL (≈ 8.04 µM)	2.47 µg/mL (≈ 4.76 µM)	O=C1[C@H]2Cc3c([nH]c4ccccc34)[C@H](Cc3ccccc3)N2C(=O)CN1C1CCN(Cc2ccccc2)CC1 [Compound 89t, (6S,12aR)-6-Benzyl-2-(1-benzyl-piperidin-4-yl)-2,3,6,7,12,12a-hexahydro-pyrazino[1',2':1,6]pyrido[3,4-b]indole-1,4-dione]	
